Literature values, collected in US5965160A, “Self-emulsifiable formulation producing an oil-in-water emulsion” (priority 1998, dated 1999).

Settings: sealed entero-coated hard gelatine capsule; Barnwell et al, 1992

Question: With `CC(C)NCC(O)COc1cccc2ccccc12` (stereo not shown) [propranolol] as the molecule, how does the “oral bioavailability (in words)” value read?
Answer: can be improved by dissolving the drug in a lipid formulation containing mainly oleic acid
